In the assay the test system is L-6 rat myocyte cytotoxicity, plate reader. The experiment in a line: L6 myocyte viability loss – cell-based, plate reader, cherry-pick, cytotoxicity control, dose response (AID 651896).

With `C[C@@H]1CN([C@@H](C)CO)C(=O)c2cccc(NC(=O)c3ccncc3)c2O[C@H]1CN(C)Cc1ccc(Oc2ccccc2)cc1`, the IC50 (as a rule, the midpoint of a concentration-inhibition curve) was 10.8 µM.

(Values after PubChem BioAssay AID651896 (Broad Institute, 2012).)
